Laboratory results taken from PubChem BioAssay (NCI).
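Test compounds were applied to cells in 96-well plates for 48 hours at 5 doses. TGI is the concentration that stops growth completely.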

Columns and labels:
Experiment in all cases: NCI tumour cell line growth inhibition, 48 h
SK-OV-3 ovarian = tested on: SK-OV-3 ovarian
HCT-116 colon = tested on: HCT-116 colon
M14 melanoma = tested on: M14 melanoma
KM12 colon = tested on: KM12 colon
OVCAR-5 ovarian = tested on: OVCAR-5 ovarian
SF-539 CNS = tested on: SF-539 CNS
K-562 leukemia = tested on: K-562 leukemia
HCT-15 colon = tested on: HCT-15 colon
MDA-MB-435 = tested on: MDA-MB-435
SNB-19 CNS = tested on: SNB-19 CNS
SR leukemia = tested on: SR leukemia
OVCAR-8 ovarian = tested on: OVCAR-8 ovarian
NCI/ADR-RES ovarian = tested on: NCI/ADR-RES ovarian
SK-MEL-28 melanoma = tested on: SK-MEL-28 melanoma
MOLT-4 leukemia = tested on: MOLT-4 leukemia
UACC-257 melanoma = tested on: UACC-257 melanoma
BT-549 breast = tested on: BT-549 breast
NCI-H226 lung = tested on: NCI-H226 lung
MDA-N = tested on: MDA-N
UACC-62 melanoma = tested on: UACC-62 melanoma
PC-3 prostate = tested on: PC-3 prostate
RPMI-8226 leukemia = tested on: RPMI-8226 leukemia
EKVX NSCLC = tested on: EKVX NSCLC
A549 NSCLC = tested on: A549 NSCLC
HCC-2998 colon = tested on: HCC-2998 colon
ACHN renal = tested on: ACHN renal
HS 578T breast = tested on: HS 578T breast
A498 renal = tested on: A498 renal
COLO 205 colon = tested on: COLO 205 colon
SF-295 CNS = tested on: SF-295 CNS
NCI-H460 lung = tested on: NCI-H460 lung
U251 CNS = tested on: U251 CNS
NCI-H522 lung = tested on: NCI-H522 lung
NCI-H23 lung = tested on: NCI-H23 lung
OVCAR-3 ovarian = tested on: OVCAR-3 ovarian
CCRF-CEM leukemia = tested on: CCRF-CEM leukemia
SK-MEL-2 melanoma = tested on: SK-MEL-2 melanoma
HOP-62 NSCLC = tested on: HOP-62 NSCLC
LOX IMVI melanoma = tested on: LOX IMVI melanoma
SNB-75 CNS = tested on: SNB-75 CNS
786-0 renal = tested on: 786-0 renal
SK-MEL-5 melanoma = tested on: SK-MEL-5 melanoma
MCF7 breast = tested on: MCF7 breast
IGROV1 ovarian = tested on: IGROV1 ovarian
MDA-MB-231 breast = tested on: MDA-MB-231 breast
SW-620 colon = tested on: SW-620 colon
CAKI-1 renal = tested on: CAKI-1 renal
TK-10 renal = tested on: TK-10 renal
RXF 393 renal = tested on: RXF 393 renal
HOP-92 NSCLC = tested on: HOP-92 NSCLC
SF-268 CNS = tested on: SF-268 CNS
HT29 colon = tested on: HT29 colon
HL-60(TB) leukemia = tested on: HL-60(TB) leukemia
DU-145 prostate = tested on: DU-145 prostate
OVCAR-4 ovarian = tested on: OVCAR-4 ovarian
UO-31 renal = tested on: UO-31 renal
T-47D breast = tested on: T-47D breast
SN12C renal = tested on: SN12C renal

How did the TGI (SK-OV-3 ovarian) turn out when `COC(=O)[C@]12CC[C@H]3CN(C(=O)OCc4ccccc4)[C@H]([C@H]31)[C@H](c1ccccc1)N2` was run?
Its TGI is greater than 100 µM.

What about the TGI (HCT-116 colon) of the same compound?
Its TGI is greater than 100 µM.

And the TGI (M14 melanoma)?
The TGI was greater than 100 µM.

And the TGI (KM12 colon)?
The TGI was greater than 100 µM.

What about the TGI (OVCAR-5 ovarian) of the same compound?
The TGI was greater than 100 µM.

And the TGI (SF-539 CNS)?
The TGI was greater than 100 µM.

What about the TGI (K-562 leukemia) of the same compound?
Its TGI is greater than 100 µM.

And the TGI (HCT-15 colon)?
Its TGI is greater than 100 µM.

And the TGI (MDA-MB-435)?
The TGI was greater than 100 µM.

And the TGI (SNB-19 CNS)?
The TGI was greater than 100 µM.

And the TGI (SR leukemia)?
The TGI was greater than 100 µM.

What about the TGI (OVCAR-8 ovarian) of the same compound?
Its TGI is greater than 100 µM.

What about the TGI (NCI/ADR-RES ovarian) of the same compound?
Its TGI is greater than 100 µM.

What about the TGI (SK-MEL-28 melanoma) of the same compound?
The TGI was greater than 100 µM.

What about the TGI (MOLT-4 leukemia) of the same compound?
Its TGI is greater than 100 µM.

What about the TGI (UACC-257 melanoma) of the same compound?
The TGI was greater than 100 µM.

What about the TGI (BT-549 breast) of the same compound?
The TGI was greater than 100 µM.

What about the TGI (NCI-H226 lung) of the same compound?
The TGI was greater than 100 µM.

What about the TGI (MDA-N) of the same compound?
Its TGI is greater than 100 µM.

And the TGI (UACC-62 melanoma)?
Its TGI is greater than 100 µM.

What about the TGI (PC-3 prostate) of the same compound?
The TGI was greater than 100 µM.

And the TGI (RPMI-8226 leukemia)?
The TGI was greater than 100 µM.

What about the TGI (EKVX NSCLC) of the same compound?
The TGI was greater than 100 µM.

And the TGI (A549 NSCLC)?
The TGI was greater than 100 µM.

What about the TGI (HCC-2998 colon) of the same compound?
The TGI was greater than 100 µM.

And the TGI (ACHN renal)?
The TGI was greater than 100 µM.

What about the TGI (HS 578T breast) of the same compound?
The TGI was greater than 100 µM.

What about the TGI (A498 renal) of the same compound?
The TGI was greater than 100 µM.

And the TGI (COLO 205 colon)?
Its TGI is greater than 100 µM.

What about the TGI (SF-295 CNS) of the same compound?
The TGI was greater than 100 µM.

And the TGI (NCI-H460 lung)?
The TGI was greater than 100 µM.

What about the TGI (U251 CNS) of the same compound?
Its TGI is greater than 100 µM.

And the TGI (NCI-H522 lung)?
The TGI was greater than 100 µM.

And the TGI (NCI-H23 lung)?
The TGI was greater than 100 µM.

And the TGI (OVCAR-3 ovarian)?
Its TGI is greater than 100 µM.

What about the TGI (CCRF-CEM leukemia) of the same compound?
Its TGI is greater than 100 µM.

What about the TGI (SK-MEL-2 melanoma) of the same compound?
Its TGI is greater than 100 µM.

What about the TGI (HOP-62 NSCLC) of the same compound?
The TGI was greater than 100 µM.

And the TGI (LOX IMVI melanoma)?
Its TGI is greater than 100 µM.

And the TGI (SNB-75 CNS)?
The TGI was greater than 100 µM.

What about the TGI (786-0 renal) of the same compound?
Its TGI is greater than 100 µM.

And the TGI (SK-MEL-5 melanoma)?
The TGI was 58.3 µM.

What about the TGI (MCF7 breast) of the same compound?
The TGI was greater than 100 µM.

And the TGI (IGROV1 ovarian)?
The TGI was greater than 100 µM.

And the TGI (MDA-MB-231 breast)?
The TGI was greater than 100 µM.

What about the TGI (SW-620 colon) of the same compound?
The TGI was greater than 100 µM.

And the TGI (CAKI-1 renal)?
The TGI was greater than 100 µM.

What about the TGI (TK-10 renal) of the same compound?
Its TGI is greater than 100 µM.

And the TGI (RXF 393 renal)?
The TGI was greater than 100 µM.

What about the TGI (HOP-92 NSCLC) of the same compound?
Its TGI is greater than 100 µM.

And the TGI (SF-268 CNS)?
The TGI was greater than 100 µM.

And the TGI (HT29 colon)?
Its TGI is greater than 100 µM.

What about the TGI (HL-60(TB) leukemia) of the same compound?
Its TGI is greater than 100 µM.

And the TGI (DU-145 prostate)?
Its TGI is greater than 100 µM.

And the TGI (OVCAR-4 ovarian)?
The TGI was greater than 100 µM.

What about the TGI (UO-31 renal) of the same compound?
The TGI was greater than 100 µM.

What about the TGI (T-47D breast) of the same compound?
Its TGI is greater than 100 µM.

What about the TGI (SN12C renal) of the same compound?
The TGI was greater than 100 µM.

With `C/C=C(/C)C(=O)O[C@H]1CCN2CC=C(COC(=O)[C@@](O)([C@H](C)OC)C(C)(C)O)[C@H]12` as the compound, how does the TGI (SK-OV-3 ovarian) read?
The TGI was greater than 100 µM.

What about the TGI (HCT-116 colon) of the same compound?
The TGI was greater than 100 µM.

What about the TGI (M14 melanoma) of the same compound?
Its TGI is greater than 100 µM.

And the TGI (KM12 colon)?
The TGI was greater than 100 µM.

And the TGI (OVCAR-5 ovarian)?
The TGI was greater than 100 µM.

What about the TGI (SF-539 CNS) of the same compound?
Its TGI is greater than 100 µM.

What about the TGI (K-562 leukemia) of the same compound?
The TGI was greater than 100 µM.

What about the TGI (HCT-15 colon) of the same compound?
The TGI was greater than 100 µM.

And the TGI (MDA-MB-435)?
Its TGI is greater than 100 µM.

What about the TGI (SNB-19 CNS) of the same compound?
Its TGI is greater than 100 µM.

And the TGI (SR leukemia)?
Its TGI is greater than 100 µM.

And the TGI (OVCAR-8 ovarian)?
Its TGI is greater than 100 µM.

And the TGI (NCI/ADR-RES ovarian)?
Its TGI is greater than 100 µM.

What about the TGI (SK-MEL-28 melanoma) of the same compound?
Its TGI is greater than 100 µM.

And the TGI (MOLT-4 leukemia)?
The TGI was greater than 100 µM.

And the TGI (UACC-257 melanoma)?
The TGI was greater than 100 µM.

And the TGI (BT-549 breast)?
The TGI was greater than 100 µM.

What about the TGI (NCI-H226 lung) of the same compound?
Its TGI is greater than 100 µM.

And the TGI (MDA-N)?
The TGI was greater than 100 µM.

And the TGI (UACC-62 melanoma)?
The TGI was greater than 100 µM.

And the TGI (PC-3 prostate)?
Its TGI is greater than 100 µM.

And the TGI (RPMI-8226 leukemia)?
The TGI was greater than 100 µM.

What about the TGI (EKVX NSCLC) of the same compound?
Its TGI is greater than 100 µM.

What about the TGI (A549 NSCLC) of the same compound?
The TGI was greater than 100 µM.

And the TGI (HCC-2998 colon)?
The TGI was greater than 100 µM.

And the TGI (ACHN renal)?
The TGI was greater than 100 µM.

What about the TGI (HS 578T breast) of the same compound?
The TGI was greater than 100 µM.

What about the TGI (A498 renal) of the same compound?
The TGI was greater than 100 µM.

What about the TGI (COLO 205 colon) of the same compound?
The TGI was greater than 100 µM.

And the TGI (SF-295 CNS)?
The TGI was greater than 100 µM.

What about the TGI (U251 CNS) of the same compound?
Its TGI is greater than 100 µM.

And the TGI (NCI-H522 lung)?
The TGI was greater than 100 µM.

What about the TGI (NCI-H23 lung) of the same compound?
The TGI was greater than 100 µM.

What about the TGI (OVCAR-3 ovarian) of the same compound?
The TGI was greater than 100 µM.

What about the TGI (CCRF-CEM leukemia) of the same compound?
Its TGI is greater than 100 µM.

And the TGI (SK-MEL-2 melanoma)?
Its TGI is greater than 100 µM.

And the TGI (HOP-62 NSCLC)?
Its TGI is greater than 100 µM.

What about the TGI (LOX IMVI melanoma) of the same compound?
The TGI was greater than 100 µM.

What about the TGI (SNB-75 CNS) of the same compound?
The TGI was greater than 100 µM.

What about the TGI (786-0 renal) of the same compound?
Its TGI is greater than 100 µM.

What about the TGI (SK-MEL-5 melanoma) of the same compound?
The TGI was greater than 100 µM.

And the TGI (MCF7 breast)?
The TGI was greater than 100 µM.

And the TGI (IGROV1 ovarian)?
The TGI was greater than 100 µM.

And the TGI (MDA-MB-231 breast)?
The TGI was greater than 100 µM.

And the TGI (SW-620 colon)?
Its TGI is greater than 100 µM.

And the TGI (CAKI-1 renal)?
Its TGI is greater than 100 µM.

What about the TGI (TK-10 renal) of the same compound?
Its TGI is greater than 100 µM.

What about the TGI (HOP-92 NSCLC) of the same compound?
Its TGI is greater than 100 µM.

What about the TGI (SF-268 CNS) of the same compound?
The TGI was greater than 100 µM.

What about the TGI (HT29 colon) of the same compound?
The TGI was greater than 100 µM.

And the TGI (HL-60(TB) leukemia)?
Its TGI is greater than 100 µM.

And the TGI (DU-145 prostate)?
The TGI was greater than 100 µM.

What about the TGI (OVCAR-4 ovarian) of the same compound?
The TGI was greater than 100 µM.

And the TGI (UO-31 renal)?
Its TGI is greater than 100 µM.

And the TGI (T-47D breast)?
Its TGI is greater than 100 µM.

What about the TGI (SN12C renal) of the same compound?
Its TGI is greater than 100 µM.
